Test results published in paper PMC8119466, “A screen of FDA-approved drugs identifies inhibitors of protein tyrosine phosphatase 4A3 (PTP4A3 or PRL-3)” (Scientific Reports, 2021).
Counter-ions that a name gives are not always drawn.

Key:
Format in all cases: biochemical
Conditions in all cases: FDA-approved drug screen; compared to DMSO
[1] = molecular target: T1, recombinant PRL-1 (Homo sapiens, UniProt Q93096); assay: In vitro phosphatase assay (DiFMUP hydrolysis), PRL-1; note: test concentration or dose not given here
T1 construct: 6xHis (N, cleaved yes); made in house; host or cells: E. coli One Shot BL21 Star
T1 sequence (Q93096 1-173): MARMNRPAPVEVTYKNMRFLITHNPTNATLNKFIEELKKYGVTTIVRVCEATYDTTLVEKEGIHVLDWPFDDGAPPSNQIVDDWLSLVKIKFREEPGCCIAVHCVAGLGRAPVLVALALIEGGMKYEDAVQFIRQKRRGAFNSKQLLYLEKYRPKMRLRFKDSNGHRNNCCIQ

[2] = molecular target: T2, recombinant PRL-2 (Homo sapiens, UniProt Q12974); assay: In vitro phosphatase assay (DiFMUP hydrolysis), PRL-2;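 note: PRL-2 activity read as DiFMUP hydrolysis after 20 min at room temperature with drug, enzyme first pre-reduced at 4 °C for 20 min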
T2 construct: 6xHis (N, cleaved yes); made in house; host or cells: E. coli One Shot BL21 Star
T2 sequence (Q12974 1-167): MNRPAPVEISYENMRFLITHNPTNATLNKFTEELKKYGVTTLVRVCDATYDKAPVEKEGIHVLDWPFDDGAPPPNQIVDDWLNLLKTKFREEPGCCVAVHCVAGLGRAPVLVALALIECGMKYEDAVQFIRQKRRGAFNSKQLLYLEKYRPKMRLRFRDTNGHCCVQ

[3] = molecular target: T3, recombinant PRL-3 (Homo sapiens, UniProt O75365); assay: In vitro phosphatase assay (DiFMUP hydrolysis), PRL-3; note: test concentration or dose not given here
T3 construct: 6xHis (N, cleaved yes); made in house; host or cells: E. coli One Shot BL21 Star
T3 sequence (O75365 whole entry): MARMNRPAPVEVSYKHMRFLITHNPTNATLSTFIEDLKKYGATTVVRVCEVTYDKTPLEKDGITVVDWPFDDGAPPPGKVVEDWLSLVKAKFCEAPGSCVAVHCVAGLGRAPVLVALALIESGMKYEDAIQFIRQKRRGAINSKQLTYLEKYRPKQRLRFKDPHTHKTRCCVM

| SMILES | % Phosphatase Activity (compared to DMSO) PRL-1 [1] [%] | % Phosphatase Activity (compared to DMSO) PRL-2 [2] [%] | % Phosphatase Activity (compared to DMSO) PRL-3 [3] [%] |
| --- | --- | --- | --- |
| NC(=O)NO [Hydroxyurea] | 91 | 113 | 100 |
| CN[C@H]1C[C@@H](N)[C@H](O)[C@@H](O[C@@H]2O[C@H](CO)[C@H](O)[C@@H]3OC4(O[C@H]23)O[C@H]([C@@H](N)CO)[C@H](O)[C@H](O)[C@H]4O)[C@@H]1O (stereo partly drawn) [Hygromycin B] | 91 | 98 | 103 |
| C[C@H](Nc1ncnc2nc[nH]c12)c1cc2cccc(Cl)c2c(=O)n1-c1ccccc1 [IPI-145 (INK1197)] | 107 | 88 | 97 |
| CCCCCN(C)CCC(O)(P(=O)([O-])O)P(=O)(O)O.[Na+] [Ibandronate sodium] | 93 | 96 | 109 |
| CC(C)Cc1ccc(C(C)C(=O)O)cc1 (stereo not drawn) [Ibuprofen] | 99 | 87 | 82 |
| CCCCCCCN(CC)CCCC(O)c1ccc(NS(C)(=O)=O)cc1.CCCCCCCN(CC)CCCC(O)c1ccc(NS(C)(=O)=O)cc1.O=C(O)/C=C/C(=O)O (stereo not drawn) [Ibutilide Fumarate] | 100 | 128 | 88 |
| COc1cc(C(=O)O)ccc1NC(=O)[C@@H]1N[C@@H](CC(C)(C)C)[C@](C#N)(c2ccc(Cl)cc2F)[C@H]1c1cccc(Cl)c1F [Idasanutlin (RG-7388)] | 7 | 15 | 2 |
| O=c1[nH]c(=O)n([C@H]2C[C@H](O)[C@@H](CO)O2)cc1I [Idoxuridine] | 94 | 103 | 90 |
| O=C1C2CC3CC1CC(O)(C3)C2 [Idramantone] | 105 | 113 | 86 |
| O=P1(NCCCl)OCCCN1CCCl (stereo not drawn) [Ifosfamide] | 100 | 99 | 78 |
| CNC(=O)[C@H](Cc1c[nH]c2ccccc12)NC(=O)[C@@H](CC(=O)NO)CC(C)C [Ilomastat (GM6001, Galardin)] | 94 | 80 | 91 |
| COc1cc(C(C)=O)ccc1OCCCN1CCC(c2noc3cc(F)ccc23)CC1 [Iloperidone] | 105 | 88 | 80 |
| CCOC(=O)[C@H](CCc1ccccc1)N[C@@H](C)C(=O)N1C(=O)N(C)C[C@H]1C(=O)O [Imidapril HCl] | 105 | 95 | 76 |
| CC(C)Cn1cnc2c(N)nc3ccccc3c21 [Imiquimod] | 98 | 106 | 67 |
| CCc1cc2c(cc1CC)CC(NC[C@H](O)c1ccc(O)c3[nH]c(=O)ccc13)C2 [Indacaterol Maleate] | 95 | 100 | 95 |
| CC1Cc2ccccc2N1NC(=O)c1ccc(Cl)c(S(N)(=O)=O)c1 (stereo not drawn) [Indapamide] | 98 | 105 | 117 |
| COc1ccc2c(c1)c(CC(=O)O)c(C)n2C(=O)c1ccc(Cl)cc1 [Indomethacin] | 96 | 106 | 71 |

| SMILES | % Phosphatase Activity (compared to DMSO) PRL-1 [1] [%] | % Phosphatase Activity (compared to DMSO) PRL-2 [2] [%] | % Phosphatase Activity (compared to DMSO) PRL-3 [3] [%] |
| --- | --- | --- | --- |
| NC(=O)c1ccc(I)c([N+](=O)[O-])c1 [Iniparib (BSI-201)] | 107 | 112 | 78 |
| C[C@H](O)C(=O)Nc1c(I)c(C(=O)NC(CO)CO)c(I)c(C(=O)NC(CO)CO)c1I [Iopamidol] | 96 | 98 | 90 |
| CC(C)[N+]1(C)[C@@H]2CC[C@H]1C[C@@H](OC(=O)C(CO)c1ccccc1)C2 (stereo partly drawn) [Ipratropium Bromide] | 103 | 93 | 83 |
| CCCCC1=NC2(CCCC2)C(=O)N1Cc1ccc(-c2ccccc2-c2nnn[nH]2)cc1 [Irbesartan] | 95 | 87 | 84 |
| CCc1c2c(nc3ccc(OC(=O)N4CCC(N5CCCCC5)CC4)cc13)-c1cc3c(c(=O)n1C2)COC(=O)[C@]3(O)CC.Cl.O.O.O [Irinotecan HCl Trihydrate] | 4597 | 4207 | 4074 |
| CCc1c2c(nc3ccc(OC(=O)N4CCC(N5CCCCC5)CC4)cc13)-c1cc3c(c(=O)n1C2)COC(=O)[C@]3(O)CC [Irinotecan] | 4706 | 5728 | 3887 |
| Nc1nc(N)nc(-c2cc(Cl)ccc2Cl)n1 [Irsogladine] | 84 | 106 | 81 |
| Clc1ccc(C(Cn2ccnc2)OCc2c(Cl)cccc2Cl)c(Cl)c1 (stereo not drawn) [Isoconazole nitrate] | 112 | 110 | 89 |
| CCC(NC(C)C)C(O)c1ccc(O)c(O)c1 (stereo not drawn) [Isoetharine Mesylate] | 103 | 98 | 93 |
| NNC(=O)c1ccncc1 [Isoniazid] | 91 | 94 | 91 |
| CC(C)NCC(O)c1ccc(O)c(O)c1.Cl (stereo not drawn) [Isoprenaline HCl] | 114 | 124 | 94 |
| O=[N+]([O-])O[C@@H]1CO[C@H]2[C@@H]1OC[C@@H]2O [Isosorbide Mononitrate] | 91 | 85 | 81 |
| CC1=C(/C=C/C(C)=C/C=C/C(C)=C\C(=O)O)C(C)(C)CCC1 [Isotretinoin] | 72 | 71 | 57 |
| Cc1cc(NC(=O)C2=C(O)c3ccccc3S(=O)(=O)N2C)no1 [Isoxicam] | 91 | 91 | 84 |
| Cc1ccc(C(=O)N(CCCN)[C@@H](c2nc3cc(Cl)ccc3c(=O)n2Cc2ccccc2)C(C)C)cc1 [Ispinesib (SB-715992)] | 103 | 108 | 80 |
| COC(=O)C1=C(C)NC(C)=C(C(=O)OC(C)C)C1c1cccc2nonc12 (stereo not drawn) [Isradipine] | 94 | 74 | 71 |
| COc1ccc(C(=O)NCc2ccc(OCCN(C)C)cc2)cc1OC.Cl [Itopride hydrochloride] | 95 | 115 | 80 |
